Laboratory results as given in patent US7722863B2, “Use of granzyme b as an hsp70/hsp70 peptide dependent inducer of apoptosis in tumor cells” (Multimmune GmbH, priority 2002, dated 2010).

Assays:
CX+ tumor cells [1] = assay: Cytochrome c release, quantitative immunoassay; type: cell-based, human; settings: camptothecin 4 μg/ml or granzyme B 6 ng/ml, 24 h
Method: (§1) Cytochrome c release: Cytochrome c release was determined using a quantitative immunoassay; (DCDCO, R&D Systems, Wiesbaden, Germany). Briefly, either untreated, camptothecin (4 μg/ml) or granzyme B (6 ng/ml) treated CX+ and CX− cells (1.5×10^6/ml) were washed in PBS and treated with lysis buffer for 1 h at room temperature. Following centrifugation at 1,000 g for 15 min supernatants were removed and 200 μl of a 1:100, 1:250, and a 1:500 dilution was used for a sandwich ELISA. Following incubation with substrate solution in the dark for 30 min the reaction was stopped. The optical density of each well was determined on an ELISA reader at 450 nm. The amount of cytochrome c was determined according to a calibration curve.
(§2) As an additional test for apoptotic cell death, cytochrome c release was measured following incubation of CX+ and CX− cells with granzyme B for 24 h. As summarized in Table I, following incubation with granzyme B (6 ng/ml) for 24 h, cytochrome c concentration was elevated from 0.382 mg/ml to 0.690 mg/ml (1.8-fold) in CX+ cells. […] It was propose that the trigger of apoptosis by granzyme B is mediated via the extracellular exposed Hsp70 epitope TKD.

CX− tumor cells [2] = assay: Cytochrome c release, quantitative immunoassay; type: cell-based, human; settings: camptothecin 4 μg/ml or granzyme B 6 ng/ml, 24 h
Method: as §1, §2

Colo+ tumor cells = assay: DAPI staining of nuclear DNA fragmentation; type: cell-based, human; settings: 24 h, camptothecin 4 μg/ml or granzyme B 6 ng/ml
Method: (§3) DAPI-staining: Methanol/aceton fixed cells (0.1×10^6 cells/100 μl) were incubated with 0.5 μg/μl 4,6-diamino-2-phenylindole (DAPI) in PBS/glycerol (3:1), for 15 min in the dark. Following washing in PBS the cells were mounted with Fluorescent Mounting Medium (Dako, Glostrup, Denmark) and than analysed for fluorescence using a Zeiss model Axioscop 2 scanning microscope (Zeiss Jena, Germany) equipped with a 40× objective and standard filters. Apoptosis was visualized with DAPI-staining in 50 cells, each. Images were treated by multiplicative shading correction using software Axiovision (Zeiss Vision Jena, Germany).

CX+ tumor cells [3] = assay: DAPI staining of nuclear DNA fragmentation; type: cell-based, human; settings: 24 h, camptothecin 4 μg/ml or granzyme B 6 ng/ml
Method: as §3

Colo− tumor cells = assay: DAPI staining of nuclear DNA fragmentation; type: cell-based, human; settings: 24 h, camptothecin 4 μg/ml or granzyme B 6 ng/ml
Method: as §3

CX− tumor cells [4] = assay: DAPI staining of nuclear DNA fragmentation; type: cell-based, human; settings: 24 h, camptothecin 4 μg/ml or granzyme B 6 ng/ml
Method: as §3

[5] = system: Hsp70 membrane-positive CX+ cells; assay: Annexin V-FITC apoptosis assay (flow cytometry); type: cell-based, human; settings: camptothecin 4 μg/ml or granzyme B 6 ng/ml; for fold increase of Annexin V-FITC positively stained CX+ cells: versus untreated
Method: (§4) Exponentially growing tumor cells (day 1 after cell passage) were used for granzyme B, camptothecin treatment and as targets in cytotoxicity assays.
(§5) Stock solutions of camptothecin (4 mg/ml, Sigma, Munich, Germany) were diluted in DMSO and stored at 4° C. in the dark. Granzyme B (6 ng/ml, Hölzel Diagnostics, Cologne, Germany) solutions were freshly prepared directly before usage. Exponentially growing cells (0.5-1.5×10^6/ml) were incubated either with camptothecin at a final concentration of 4 μg/ml or with purified, enzymatically active granzyme B (10 ng/ml, 1 μg/ml, 2 μg/ml; 4 μg/ml) (Shi et. al. (2000) Methods in Enzymology 322, 125) for 10 min, and 30 min either at 4° C. or at 37° C. After washing in RPMI-1640 medium binding and uptake was determined in nonpermeabilized and permeabilized tumor cells by flow cytometry and fluorescence microscopy on a Axioscop 25 scanning microscope (Zeiss, Jena, Germany) equipped with a 40× objective and standard filters. Images were treated by multiplicative shading correction using the software Axiovison (Zeiss Vison, Jena, Germany). Granzyme B was visualized in red by using the HC2-PE antibody.
(§6) Apoptotic Cell Death was Determined after Incubation of Tumor Cells with 6 ng/ml Granzyme B for 4 h, 12 h, and 24 h at 37° C. and Washing in RPMI-1640 Medium by Different Apoptosis Assays, as Described Below. Apoptosis Assays
(§7) Annexin V-FITC staining: Briefly, cells were washed twice in Hepes buffer containing 5 mM CaCl2 and incubated with Annexin V-FITC (Roche) for 10 min at room temperature. Annexin V-FITC positively stained cells were measured on a FACSCalibur flow cytometer (Becton Dickinson, Heidelberg, Germany).
(§8) The preceding findings posed the question whether purified granzyme B can induce apoptosis of tumor cells that present Hsp70 on their cell surface. […] As a positive control for apoptosis all cell types were incubated with the topoisomerase inhibitor camptothecin at a concentration of 4 μg/ml. Apoptosis was determined by Annexin V-FITC staining measured by FACS (FACSCalibur, Becton Dickinson, Heidelberg, Germany), DAPI staining and mitochondrial cytochrome c release. Apoptosis was not detected in CX+ and CX− cells incubated with camptothecin (cam) or granzyme B (grB) for 4 h incubation (FIG. 3A). […] It appeared that the colon carcinoma sublines CX+/CX− are better protected towards a camptothecin-mediated cell death as compared to the pancreas carcinoma sublines Colo+/Colo−.

[6] = system: Hsp70 membrane-negative CX− cells; assay: Annexin V-FITC apoptosis assay (flow cytometry); type: cell-based, human; settings: for apoptosis in CX− cells: camptothecin 4 μg/ml or granzyme B 6 ng/ml; for amount of Annexin V-FITC positively stained CX− cells / fold increase of Annexin V-FITC positively stained CX− cells: camptothecin 4 μg/ml; for fold increase of Annexin V-FITC positively stained CX− cells: versus untreated
Method: as §4, §5, §6, §7, §8

[7] = system: Hsp70 membrane-positive Colo+ cells; assay: Annexin V-FITC apoptosis assay (flow cytometry); type: cell-based, human; settings: 12 h and 24 h; camptothecin 4 μg/ml
Method: as §4, §5, §6, §7, §8

[8] = system: Hsp70 membrane-negative Colo− cells; assay: Annexin V-FITC apoptosis assay (flow cytometry); type: cell-based, human; settings: 12 h and 24 h; camptothecin 4 μg/ml or granzyme B 6 ng/ml
Method: as §4, §5, §6, §7, §8

[9] = system: Hsp70 membrane-positive tumor target cells; settings: Hsp70-protein 10 to 50 μg/ml; cited from earlier work

Question: Which results are given for `CC[C@@]1(O)C(=O)OCc2c1cc1n(c2=O)Cc2cc3ccccc3nc2-1` [camptothecin, reference compound]?
Answer: cytochrome c fold increase (CX+ tumor cells [1]; control 1.0): 1.5 fold; cytochrome c (CX+ tumor cells [1]; mean of 4 experiments ± S.E., control 0.382 ± 0.02): 0.555 ± 0.04 mg/mL; cytochrome c fold increase (CX− tumor cells [2]; control 1.0): 1.5 fold; cytochrome c (CX− tumor cells [2]; mean of 4 experiments ± S.E., control 0.452 ± 0.02): 0.672 ± 0.02 mg/mL; nuclear DNA fragmentation (DAPI) (Colo+ tumor cells): exhibited nuclear fragmentation; nuclear DNA fragmentation (DAPI) (CX+ tumor cells [3]): exhibited nuclear fragmentation; nuclear DNA fragmentation (DAPI) (Colo− tumor cells): exhibited nuclear fragmentation; nuclear DNA fragmentation (DAPI) (CX− tumor cells [4]): exhibited nuclear fragmentation; apoptosis in CX+ cells ([5]; 4 h incubation): not detected; amount of Annexin V-FITC positively stained CX+ cells ([5]; 12 h, untreated 16.6%): 28.0%; fold increase of Annexin V-FITC positively stained CX+ cells ([5]; 12 h): 1.7 fold; apoptosis in CX+ cells ([5]; 12 h and 24 h): underwent apoptosis; amount of Annexin V-FITC positively stained CX+ cells ([5]; 24 h, untreated 18%): 39%; fold increase of Annexin V-FITC positively stained CX+ cells ([5]; 24 h): 2.1 fold; apoptosis in CX− cells ([6]; 4 h incubation): not detected; amount of Annexin V-FITC positively stained CX− cells ([6]; 12 h, untreated 12.1%): 19.8%; fold increase of Annexin V-FITC positively stained CX− cells ([6]; 12 h): 1.6 fold; apoptosis in CX− cells ([6]; 12 h and 24 h): underwent apoptosis; amount of Annexin V-FITC positively stained CX− cells ([6]; 24 h, untreated 11.9%): 25.1%; fold increase of Annexin V-FITC positively stained CX− cells ([6]; 24 h): 2.1 fold; apoptosis in Colo+ cells [7]: underwent apoptosis; apoptosis in Colo− cells [8]: underwent apoptosis

Question: For “Hsp70-protein: recombinant human Hsp70-protein (Stressgen)”, which “cytolytic activity of NK cells against Hsp70 membrane-positive tumor target cells” value [9] is on record?
Answer: The value was “increased cytolytic activity”.
